EPA's ToxValDB 9.5 (doi:10.2903/j.efsa.2008.175r)
≈ marks a conversion by molar mass, not a printed value.

Experiments:
Coturnix coturnix = conditions: reproduction developmental
Pimephales promelas = conditions: chronic/long-term; duration: 30 days
Folsomia candida = conditions: chronic/long-term; duration: 4 weeks
Daphnia magna = conditions: chronic/long-term; duration: 21 days; reproduction
Canidae = conditions: oral, Dog Other, organ weight
Anas platyrhynchos = conditions: for LD50: oral, mortality
Rattus norvegicus = conditions: for NOAEL: reproduction developmental, reproduction
Oncorhynchus mykiss = conditions: acute; duration: 96 hours; mortality
Bibionidae = conditions: chronic/long-term
Plant = conditions: not reported; seedling emergence
Typhlodromus pyri = experiment: LR50; higher = less toxic; conditions: not reported; mortality
Colinus virginianus = conditions: acute; oral; mortality

c1nc[nH]n1 [1H-1,2,4-Triazole]
NOEL (Coturnix coturnix): > 316 mg/kg-day

CCCC(Cn1cncn1)c1ccc(Cl)cc1Cl (configuration not stated) [Penconazole]
NOEC (Pimephales promelas): 0.32 mg/L
NOEC (Folsomia candida): 98.8 mg/kg
NOEC (Daphnia magna): 0.06 mg/L
LC50 (Tagia sp.; acute, duration: 14 days, mortality): > 663 mg/kg
NOEC (Tagia sp.; chronic/long-term, duration: 56 days): > 0.34 mg/kg
LD50 (Oryctolagus sp.; acute, oral, mortality): 971 mg/kg-day
NOAEL (Oryctolagus sp.; developmental, development): 50 mg/kg-day
NOAEL (Canidae; chronic, duration: 1 years): 3 mg/kg-day
NOAEL (Canidae; subchronic, duration: 90 days): 3 mg/kg-day
LD50 (Anas platyrhynchos; acute, unspecified): > 1590 mg/kg-day
NOEL (Anas platyrhynchos; reproductive): 28.6 mg/kg-day
LD50 (Anas platyrhynchos; short-term, feed): > 1840 mg/kg-day
NOAEL (Rattus norvegicus): 20 mg/kg-day
LC50 (Oncorhynchus mykiss): 1.13 µg/mL (≈ 3.98 µM)
NOEC (Bibionidae): 25.2 mg/kg
NOEC (Bibionidae; duration: 28 days): 0.8 mg/L
LEL (Plant): 30 g/ha
LR50 (Typhlodromus pyri): 100 g/ha

NC(Cc1ncn[nH]1)C(=O)O (configuration not stated) [1,2,4-Triazole-3-alanine]
LD50 (Rattus norvegicus; acute, oral, mortality): > 5000 mg/kg-day
NOAEL (Rattus norvegicus): 100 mg/kg-day
LD50 (Colinus virginianus): > 1340 mg/kg-day
